# Tests used:
# young crickets [1] = experiment: AMK-related synthetic compounds inducing long-term memories in young crickets; type: in vivo, Gryllus bimaculatus; conditions: 3 μl of 1 μg/ml to the brain 20 minutes after single-time training
# Description: Male (young) crickets about one week old following molting into their adult stage were used. Each of the crickets was placed in a 100 ml beaker three days before the experiment, and deprived of water for 2-3 days to enhance the desire of taking water. As the feed, about 10 pieces of insect feed were placed into the beaker.
# In the same manner as “1.2, Olfactory associative conditioning” in Example 1, learning/training for smell and reward associative conditioning was conducted.
# In the same manner as “1.3. Smell preference test” in Example 1, a test of smell preference was carried out.
# As drugs, the AMK-related synthetic compounds (Compounds 1-10) synthesized in Example 2 above were used. For all of the drugs, 1 mg of the drug was initially dissolved in 100 μl of DMSO, and then diluted with physiological saline for crickets that was 10000 times the amount of the drug solution (final concentration: 1 μg/ml). In the administration experiments, 3 μl was administered to the brain via an aperture opened through a simple eye of the head using a 10-μl syringe.
# Processing was conducted in the same manner as “1.5. Statistical processing” in Example 1.
# young crickets [2] = experiment: Olfactory associative learning test in young crickets (single-time training, memory a day after); type: in vivo, Gryllus bimaculatus; conditions: for long-term memory formation a day after the training: 3 μl to the brain
# Description: Male crickets about one week old (young) or three week old (aged) following molting into adult forms were used. Each of the crickets was placed into a 100 ml beaker three days before the experiment, and deprived of water for 2-3 days to enhance the desire of taking water. As the feed, about 10 pieces of insect feed were placed into the beaker.
# A 1-ml syringe was used for smell and reward associative conditioning upon learning/training. The syringe contained water as the reward while a piece of paper (3 mm×3 mm) perfumed with peppermint essence was pierced into the needle to about 1 cm from the tip thereof. In this learning/training, the filter paper on the needle was brought near the antennae of the cricket to allow it to smell for 3 seconds and then a drop of water was put out from the tip of the needle and applied to the mouth of the cricket. When the associative conditioning was conducted for four times, the conditionings were conducted at intervals of 5 minutes.
# Smell preference was examined by placing each cricket into a test arena. The arena consisted of a “standby chamber” and a “test chamber”. The floor of the “test chamber” had two holes each with a diameter of 4 cm which were communicated with two smell sources. The smell source was a plastic pot containing filter paper perfumed with essence of a smell (peppermint or vanilla) and covered with a gauze lid. In the preference test, each cricket was placed into the test chamber and allowed to walk freely for 4 minutes to search for the two smell sources. Two minutes after the start of the test, a rotary board having the smell sources was rotated to reverse the positions of the vanilla and the peppermint smells. During the test, the time the cricket spent placing its mouth to the gauze of the smell source was measured as a visiting time to the smell source, and the ratio of the visiting times of the two types of smells (PI value: preference index) was calculated according to the following formula to assess the relative preference to the mint smell. PI value=Tp/(Tp+Tv)×100 • Tp: Searching time for smell associated with the reward (peppermint) • Tv: Searching time for smell not associated with the reward (vanilla)
# If the preferences for the two smells are equivalent, PI will be 50. Since crickets inherently prefer vanilla smell over peppermint smell, an average PI value prior to the learning/training is usually 25-35, The preference test was conducted before and after the learning/training to examine whether preference for the smell changes due to the learning/training.
# As drugs, melatonin, N(1)-acetyl-N(2)-formyl-5-methoxykynuramine (AFMK), N(1)-acetyl-5-methoxykynuramine (AMK), 6-Hydroxymelatonin (6-HM), L-kynurenine, kynuramine, 8-Bromoguanoine 3′,5′-cyclic monophosphate sodium salt (8 br-cGMP) and cycloheximide (CHX) were used. Melatonin, 6-HM, kynurenine, kynuramine and 8br-cGMP were purchased from SIGMA Aldrich, AFMK was purchased from Cayman Chemical, AMK was purchased from Toronto Research Chemicals and CHX was purchased from Wako Pure Chemical Industries. The drugs other than 8br-cGMP and CHX were first dissolved in ethanol and then diluted with physiological saline for crickets to the respective concentrations. In the administration experiment, 3 μl was administered using a 10-μl syringe to the brain via an aperture opened through a simple eye of the head.
# PI values were tested before the training and a day after the training in the same group by a Wilcoxon's-test.
# young mice = experiment: Object recognition test for young mice (melatonin and melatonin metabolites); type: in vivo, ICR mice; conditions: i.p. 60 minutes after one one-minute acquisition trial, test trial 24 hours later
# Description: Two-month-old male ICR mice (young mice) were used. The rearing room was kept at 22° C. at cycles of 12 hours of light period/12 hours of dark period, and feed and drinking water were given freely. All of the experiments were conducted during the latter 6 hours of the light period.
# Melatonin (MEL), N(1)-acetyl-N(2)-formyl-5-methoxykynuramine (AFMK), and N(1)-acetyl-5-methoxykynuramine (AMK) were used as drugs. Melatonin was purchased from SIGMA Aldrich, AFMK was purchased from Cayman Chemical, and AMK was purchased from Toronto Research Chemicals. AFMK and AMK were diluted with physiological saline and intraperitoneally administered at a dosage of 0.01 mg/kg bw, 0.1 mg/kg bw or 1.0 mg/kg bw. MEL was diluted with physiological saline containing 1 vol % ethanol, and intraperitoneally administered at a dosage of 1.0 mg/kg bw or 5.0 mg/kg bw. As controls, physiological saline or physiological saline containing 1 vol % ethanol was intraperitoneally administered.
# Test was conducted in the same manner as “5.3 Object recognition test” in Example 5.
# Processing was conducted in the same manner as “5.4 Statistical processing” in Example 5.
# aged crickets = experiment: Olfactory associative learning test in aged crickets (age-related memory disorder, training four times); type: in vivo, Gryllus bimaculatus; conditions: 500 μM, 3 μl, 20 minutes before training for four times
# Description: Male crickets about one week old (young) or three week old (aged) following molting into adult forms were used. Each of the crickets was placed into a 100 ml beaker three days before the experiment, and deprived of water for 2-3 days to enhance the desire of taking water. As the feed, about 10 pieces of insect feed were placed into the beaker. A 1-ml syringe was used for smell and reward associative conditioning upon learning/training. The syringe contained water as the reward while a piece of paper (3 mm×3 mm) perfumed with peppermint essence was pierced into the needle to about 1 cm from the tip thereof. In this learning/training, the filter paper on the needle was brought near the antennae of the cricket to allow it to smell for 3 seconds and then a drop of water was put out from the tip of the needle and applied to the mouth of the cricket. When the associative conditioning was conducted for four times, the conditionings were conducted at intervals of 5 minutes. Smell preference was examined by placing each cricket into a test arena. The arena consisted of a “standby chamber” and a “test chamber”. […] The smell source was a plastic pot containing filter paper perfumed with essence of a smell (peppermint or vanilla) and covered with a gauze lid. In the preference test, each cricket was placed into the test chamber and allowed to walk freely for 4 minutes to search for the two smell sources. Two minutes after the start of the test, a rotary board having the smell sources was rotated to reverse the positions of the vanilla and the peppermint smells. During the test, the time the cricket spent placing its mouth to the gauze of the smell source was measured as a visiting time to the smell source, and the ratio of the visiting times of the two types of smells (PI value: preference index) was calculated according to the following formula to assess the relative preference to the mint smell. PI value=Tp/(Tp+Tv)×100 • Tp: Searching time for smell associated with the reward (peppermint) • Tv: Searching time for smell not associated with the reward (vanilla) If the preferences for the two smells are equivalent, PI will be 50. Since crickets inherently prefer vanilla smell over peppermint smell, an average PI value prior to the learning/training is usually 25-35, The preference test was conducted before and after the learning/training to examine whether preference for the smell changes due to the learning/training. […] Melatonin, 6-HM, kynurenine, kynuramine and 8br-cGMP were purchased from SIGMA Aldrich, AFMK was purchased from Cayman Chemical, AMK was purchased from Toronto Research Chemicals and CHX was purchased from Wako Pure Chemical Industries. The drugs other than 8br-cGMP and CHX were first dissolved in ethanol and then diluted with physiological saline for crickets to the respective concentrations. In the administration experiment, 3 μl was administered using a 10-μl syringe to the brain via an aperture opened through a simple eye of the head. PI values were tested before the training and a day after the training in the same group by a Wilcoxon's-test.
# [3] = 5 μM, 20 minutes after single-time training
compound,measurement,setting,value
"CCC(=O)NCCC(=O)c1cc(OC)ccc1N [Compound 2, N-[3-(2-amino-5-methoxyphenyl)-3-oxopropyl]-propionamide]",effect in inducing long-term memory compared with AMK,young crickets [1],superior effects over AMK
"COc1ccc(N)c(C(=O)CCNC(=O)c2ccccc2)c1 [Compound 3, N-[3-(2-amino-5-methoxyphenyl)-3-oxopropyl]-benzamide]",effect in inducing long-term memory compared with AMK,young crickets [1],superior effects over AMK
"COc1ccc(N)c(C(=O)CCNC(=O)c2ccccc2OC)c1 [Compound 5, N-[3-(2-amino-5-methoxyphenyl)-3-oxopropyl]-2-methoxybenzamide]",melting point,,134.5 to 136 °C
"COc1ccc(N)c(C(=O)CCNC(=O)c2ccc3ccccc3c2)c1 [Compound 6, N-[3-(2-amino-5-methoxyphenyl)-3-oxopropyl]-2-naphthamide]",melting point,,113.5 to 114.5 °C
same,effect in inducing long-term memory after one day,young crickets [1],did not show significant difference with the number of individuals used this time but they showed a tendency to induce long-term memories
"COc1cc2c(CCNC(C)=O)c[nH]c2cc1O [Compound 6-HM, 6-Hydroxymelatonin, reference compound]",long-term memory formation a day after the training,young crickets [2]; [3],a long-term memory was not formed
same,long-term memory formation a day after the training,"young crickets [2]; 5 μM, 20 minutes before single-time training",a long-term memory was not formed
"COc1ccc(N)c(C(=O)CCNC(=O)c2ccccn2)c1 [Compound 7, N-[3-(2-amino-5-methoxyphenyl)-3-oxopropyl]-2-picolinamide]",melting point,,114 to 115.5 °C
same,effect in inducing long-term memory compared with AMK,young crickets [1],superior effects over AMK
"CC(=O)NCCC(=O)c1cc(Cl)ccc1N [Compound 8, N-[3-(2-amino-5-chlorophenyl)-3-oxopropyl]-acetamide]",melting point,,121 to 122 °C
same,effect in inducing long-term memory after one day,young crickets [1],did not show significant difference with the number of individuals used this time but they showed a tendency to induce long-term memories
"Nc1nc2c(nc(Br)n2[C@@H]2O[C@@H]3COP(=O)([O-])O[C@H]3[C@H]2O)c(=O)[nH]1.[Na+] [Compound 8br-cGMP, 8-Bromoguanoine 3′,5′-cyclic monophosphate sodium salt, reference compound]",long-term memory formation a day after the training,"young crickets [2]; 200 μM, 20 minutes after single-time training",did not have the effect of inducing long-term memory
same,long-term memory formation a day after the training,"young crickets [2]; 200 μM, 20 minutes before single-time training",confirmed
"CC(=O)NCCC(=O)c1ccccc1N [Compound 9, N-[3-(2-aminophenyl)-3-oxopropyl]acetamide]",effect in inducing long-term memory compared with AMK,young crickets [1],superior effects over AMK
"COc1ccc(NC=O)c(C(=O)CCNC(C)=O)c1 [Compound 10, N-[3-(2-formylamino-5-methoxyphenyl)-3-oxopropyl]acetamide]",administration concentration sufficient to form long-term memory,young crickets [2]; 3 μl to the brain 20 minutes after single-time training,1 µM
same,concentration at which the effect of inducing long-term memories was found,young mice,1.0 mg/kg bw
"COc1ccc(NC(C)=O)c(C(=O)CCNC(C)=O)c1 [Compound 13, N-[3-(2-acetylamino-5-methoxyphenyl)-3-oxopropyl]acetamide]",melting point,,143 to 145 °C
"NCCC(=O)c1ccccc1N [Compound 15, 3-amino-1-(2-aminophenyl)-1-propanone]",long-term memory formation a day after the training,young crickets [2]; [3],the long-term memories were formed
"Nc1ccccc1C(=O)CC(N)C(=O)O (stereo not drawn) [Compound 16, 3-[(2-aminophenyl)carbonyl]-2-aminopropionic acid]",long-term memory formation a day after the training,young crickets [2]; [3],the long-term memories were formed
N[C@@H](CCC(=O)N[C@@H](CS)C(=O)NCC(=O)O)C(=O)O [glutathione],improvement in an age-related memory disorder,aged crickets,no improvement
O=C1O[C@H]([C@@H](O)CO)C(O)=C1O [vitamin C],improvement in an age-related memory disorder,aged crickets,no improvement

# Reference: US10266482B2, “Long-term memory inducing agent” (NATIONAL UNIVERSITY CORPORATION TOKYO MEDICAL AND DENTAL …, priority 2017, dated 2019)
